Assay results published in ChEMBL document CHEMBL5356999, “Discovery and characterization of novel TRPML1 agonists” (Bioorg Med Chem Lett, 2024).

Legend:
[1] = Effect on TRPML1 knockout HEK293 cells; format: functional, cell-based, Homo sapiens
[2] = Apparent permeability across apical to basolateral side in MDCK-MDR1 cells; format: ADME, cell-based, Canis lupus familiaris; conditions: dog
[3] = Efflux ratio of apparent permeability in MDCK-MDR1 cells; format: ADME, cell-based, Canis lupus familiaris; conditions: dog
[4] = Plasma protein binding in mouse; format: ADME, cell-free
[5] = Plasma protein binding in rat; format: ADME
[6] = Plasma protein binding in cynomolgus monkey; format: ADME, cell-free, Macaca fascicularis
[7] = Plasma protein binding in human; format: ADME
[8] = Protein binding in mouse brain; format: ADME, tissue-based
[9] = Stability in mouse hepatocytes assessed as half life; format: ADME, cell-based, Hepatocyte
[10] = Stability in rat hepatocytes assessed as half life; format: ADME, cell-based, Hepatocyte
[11] = Stability in cynomolgus monkey hepatocytes assessed as half life; format: ADME, cell-based, Macaca fascicularis, Hepatocyte
[12] = Cmax in mouse at 10 mg/kg, po or 1 mg/kg, iv; format: ADME, organism-based; parameters: dose 10 mg/kg, route po; conditions: in vivo
[13] = Stability in human hepatocytes assessed as half life; format: ADME, cell-based, Hepatocyte
[14] = Stability in dog assessed as half life; format: ADME, cell-based, Canis lupus familiaris, Hepatocyte; conditions: hepatocytes
[15] = Stability in mouse assessed as intrinsic clearance; format: ADME, cell-based, Hepatocyte; conditions: hepatocytes
[16] = Stability in rat assessed as intrinsic clearance; format: ADME, cell-based, Hepatocyte; conditions: hepatocytes
[17] = Stability in cynomolgus monkey assessed as intrinsic clearance; format: ADME, cell-based, Macaca fascicularis, Hepatocyte; conditions: hepatocytes
[18] = Stability in human assessed as intrinsic clearance; format: ADME, cell-based, Hepatocyte; conditions: hepatocytes
[19] = Stability in dog assessed as intrinsic clearance; format: ADME, cell-based, Canis lupus familiaris, Hepatocyte; conditions: hepatocytes
[20] = Half life in mouse at 1 mg/kg, IV; format: ADME, organism-based; conditions: in vivo
[21] = Unbound brain-to-plasma concentration ratio in mouse measured after 8 hrs; format: ADME, cell-free; conditions: read-out: K(p,uu,brain)
[22] = Bioavailability in mouse at 10 mg/kg, po or 1 mg/kg, iv; format: ADME, organism-based; conditions: in vivo
[23] = Clearance in mouse at 10 mg/kg, po or 1 mg/kg, iv; format: ADME, organism-based; conditions: in vivo
[24] = Volume of distribution at steady state in mouse at 10 mg/kg, po or 1 mg/kg, iv; format: ADME, organism-based; conditions: in vivo
[25] = Half life in mouse at 10 mg/kg, PO; format: ADME, organism-based; conditions: in vivo

Compound | EC50 [1] [µM] | Papp A→B [2] [×10⁻⁶ cm/s] | efflux ratio [3] | fu [4] [%] | fu [5] [%] | fu [6] [%] | fu [7] [%] | fu,brain [8] [%] | half-life [9] [min] | half-life [10] [min] | half-life [11] [min] | Cmax [12] [ng/mL] | half-life [13] [min] | half-life [14] [min] | clearance [15] [mL/min/kg] | clearance [16] [mL/min/kg] | clearance [17] [mL/min/kg] | clearance [18] [mL/min/kg] | clearance [19] [mL/min/kg] | half-life [20] [min] | other results
CC(C)n1nnnc1[C@H](c1ccccc1F)N1CCN(c2cccc(Cl)c2)CC1 | > 48.8 | 10.7 | 0.6 | 1 | 0.8 | 1 | 0.4 | 0.3 | 39.1 | 9.78 | 14.2 | 8.96 | 37 | 46.3 | 209 | 332 | 190 | 47.6 | 103 | 115 | Kp uu at 8 h [21]: 0.55; bioavailability [22]: 3.45%; CL [23]: 109 mL/min/kg; Vdss [24]: 9.27 L/kg
Clc1cccc(N2CCN(C3c4ccccc4CCCCn4nnnc43)CC2)c1 (stereo not drawn) | > 48.8 | – | – | – | – | – | – | – | – | – | – | – | – | – | – | – | – | – | – | – | –
Clc1cccc(N2CCN(C3c4ccccc4CCCCCn4nnnc43)CC2)c1 (stereo not drawn) | > 48.8 | – | – | – | – | – | – | – | – | – | – | – | – | – | – | – | – | – | – | – | –
CN(C)S(=O)(=O)c1ccc(S(=O)(=O)Nc2cccc(Cl)c2N2CCCCC2)cc1 | 1 | – | – | – | – | – | – | – | – | – | – | – | – | – | – | – | – | – | – | – | –

Further lines, with some results ahead:

EC50 [1] [µM] | Papp A→B [2] [×10⁻⁶ cm/s] | efflux ratio [3] | fu [4] [%] | fu [5] [%] | fu [6] [%] | fu [7] [%] | fu,brain [8] [%] | half-life [9] [min] | half-life [10] [min] | half-life [11] [min] | Cmax [12] [ng/mL] | half-life [13] [min] | half-life [14] [min] | clearance [15] [mL/min/kg] | clearance [16] [mL/min/kg] | clearance [17] [mL/min/kg] | clearance [18] [mL/min/kg] | clearance [19] [mL/min/kg] | half-life [20] [min] | Compound | other results
> 48.8 | – | – | – | – | – | – | – | – | – | – | – | – | – | – | – | – | – | – | – | Clc1cccc(N2CCN(C3c4ccccc4/C=C\CCCn4nnnc43)CC2)c1 (stereo not drawn) | –
> 48.8 | 9.9 | 0.4 | 0.5 | 0.4 | 0.7 | 0.6 | 0.3 | 48 | 4.97 | 39.1 | 36.2 | 16.9 | 57 | 170 | 652 | 69.1 | 104 | 83.7 | 131 | CC(C)n1nnnc1[C@@H](c1ccccc1F)N1CCN(c2cccc(Cl)c2)CC1 | half-life [25]: 104 min; Kp uu at 8 h [21]: 0.77; bioavailability [22]: 12.4%; CL [23]: 103 mL/min/kg; Vdss [24]: 9.01 L/kg
